What was measured:
[1] = per 1.0 mg of the tocopherol equivalent; cited from earlier work
PC12 cells = test: survival of PC12 cells during incubation with nutrients; format: cell-based; settings: control medium plus nutrient
APP/PS1 mice [2] = test: abeta plaque burden in hippocampus of APP/PS1 mice fed enriched diets; format: in vivo; settings: diet fed 3 months from 3 to 6 months of age, compared to control diet
Description: (§1) These mice start showing plaques in their brains as early as 4-5 months of age and are considered a good model for AD in scientific literature.
(§2) The diets were fed for a period of 3 months until the age of 6 months. Thereafter the mice were sacrificed and their brains processed for abeta plaque analyses and neurodegeneration analyses. The brain was cut into thin slices using a vibratome and the slices were stained for abeta using an antibody recognizing human abeta and for neurodegeneration using the amino-cupric staining The total number of plaques in the hippocampus was counted and the total surface of the area covered by plaques (plaque burden) was determined. Total surface area covered with neuritic plaques (staining positive for amino-cupric) was determined to measure the level of neurodegeneration.

[3] = system: muscarinic acetylcholine receptor; test: oxotremorine-induced membrane potential change in PC12 cells after incubation with nutrients (receptor functionality); format: cell-based; settings: 1 day of incubation, then 50 μM oxotremorine, percentage change compared to control conditions
Protocol: After 1 day of incubation the medium+additions were replaced by control medium and the cells were stimulated with 50 μM oxotremorine, an agonist at the muscarinic acetylcholine receptor, involved in learning and memory. Oxotremorine induces a depolarization of the membrane which can be measured as a change in membrane potential. At a fixed dose of the agonist, increases in membrane potential are thought to reflect improvements in receptor functioning.

APP/PS1 mice [4] = test: neurodegeneration (amino-cupric staining of neuritic plaques) in APP/PS1 mice fed enriched diets; format: in vivo; settings: diet fed 3 months from 3 to 6 months of age, compared to control diet
Description: as §1, §2

Compound	IU vitamin E [1] [IU]	x mg α-TE [1] [mg α-TE]	other results
CC(=O)Oc1c(C)c(C)c2c(c1C)CCC(C)(CCCC(C)CCCC(C)CCCC(C)C)O2 (racemic) [all rac-α-tocopheryl acetate]	1.00	0.67	–
Cc1c(C)c2c(c(C)c1O)CCC(C)(CCCC(C)CCCC(C)CCCC(C)C)O2 (racemic) [all rac-α-tocopherol]	1.10	0.74	–
Cc1c(O)cc2c(c1C)O[C@](C)(CCC[C@H](C)CCC[C@H](C)CCCC(C)C)CC2 [RRR-γ-tocopherol]	0.15	0.10	–
CC/C=C\C/C=C\C/C=C\C/C=C\C/C=C\C/C=C\CCC(=O)O [DHA, docosahexaenoic acid]	–	–	cell death on incubation (PC12 cells): led to cell death
CC(=O)Oc1c(C)c(C)c2c(c1C)CC[C@@](C)(CCC[C@H](C)CCC[C@H](C)CCCC(C)C)O2 [RRR-α-tocopheryl acetate]	1.36	0.91	–
CC(C)=CCC/C(C)=C/CC/C(C)=C/CC[C@]1(C)CCc2c(C)c(O)cc(C)c2O1 [RRR-β-tocotrienol]	0.08	0.05	–
Cc1c(C)c2c(c(C)c1O)CC[C@@](C)(CCC[C@H](C)CCC[C@H](C)CCCC(C)C)O2 [RRR-α-tocopherol]	1.49	1.0	–
Cc1c(C)c2c(c(C)c1OC(=O)CCC(=O)O)CCC(C)(CCCC(C)CCCC(C)CCCC(C)C)O2 (racemic) [all rac-α-tocopheryl succinate]	0.89	0.60	–
Cc1c(C)c2c(c(C)c1OC(=O)CCC(=O)O)CC[C@@](C)(CCC[C@H](C)CCC[C@H](C)CCCC(C)C)O2 [RRR-α-tocopheryl succinate]	1.21	0.81	–
Cc1cc(O)cc2c1O[C@](C)(CCC[C@H](C)CCC[C@H](C)CCCC(C)C)CC2 [RRR-δ-tocopherol]	0.05	0.03	–
O=c1ccn([C@@H]2O[C@H](COP(=O)(O)O)[C@@H](O)[C@H]2O)c(=O)[nH]1 [UMP, uridine monophosphate]	–	–	plaque burden in the hippocampus (APP/PS1 mice [2]): not affected; membrane potential change [3]: did not affect membrane potential change; level of neurodegeneration (APP/PS1 mice [4]): did not differ from the control
CC(C)=CCC/C(C)=C/CC/C(C)=C/CC[C@]1(C)CCc2c(C)c(O)c(C)c(C)c2O1 [RRR-α-tocotrienol]	0.75	0.50	–
Cc1cc(O)c(C)c2c1O[C@](C)(CCC[C@H](C)CCC[C@H](C)CCCC(C)C)CC2 [RRR-β-tocopherol]	0.75	0.50	–
